Experimental findings from patent US5869476A, “Pyrimidinone derivatives” (Boryung Pharmaceutical Co., Ltd., priority 1994, dated 1999) are described below.

The target of one assay is T1, angiotensin II receptor (Oryctolagus cuniculus, UniProt P34976).
T1 construct: The aorta was cut into 3~4 mm to form ring samples; from tissue; host or cells: isolated aorta rings of New Zealand White rabbits
T1 sequence (P34976 1-359): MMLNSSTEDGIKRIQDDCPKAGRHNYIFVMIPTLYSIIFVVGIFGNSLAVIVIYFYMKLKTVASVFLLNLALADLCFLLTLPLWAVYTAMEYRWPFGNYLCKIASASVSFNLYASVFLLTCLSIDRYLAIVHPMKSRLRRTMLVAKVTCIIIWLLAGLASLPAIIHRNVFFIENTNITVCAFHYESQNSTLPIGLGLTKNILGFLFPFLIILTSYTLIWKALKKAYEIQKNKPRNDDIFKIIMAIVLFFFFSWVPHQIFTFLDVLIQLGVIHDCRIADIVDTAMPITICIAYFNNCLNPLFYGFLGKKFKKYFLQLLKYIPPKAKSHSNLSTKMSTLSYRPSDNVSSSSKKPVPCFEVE
Nature of the assay: inhibition of angiotensin II induced contraction of isolated rabbit aorta rings. The format is cell-based, New Zealand White rabbit. As to conditions: test compound incubated 20 minutes, 37° C., pH 7.4, read-out: IC50 (concentration being required to inhibit angiotensin II induced contraction by 50%). The protocol: The antagonistic activity of the representative compounds of the invention was evaluated using the methodology describe below.
From New Zealand White rabbits (male or female, 2~2.5 kg), aorta was isolated, and fat and connected tissue were removed therefrom. The aorta was cut into 3~4 mm to form ring samples. The aorta sample was suspended in 20 ml of organ bath (37° C.) containing modified Krebs-Henseleit solution saturated with 95% O2 /5% CO2 (pH 7.4).
The aorta preparation was exposed consecutively to 2 g of tensile strength for 90 minutes intermittently washing the sample with 30 minutes interval and then to 30 mM of KCl to observe contraction response. After washing more than three times, the aorta preparation was again allowed to contract three times for stabilization by adding Angiotensin II ([…]) thereto with 30 minutes interval. The third contraction response to Angiotensin II was considered as control.
10 minutes after the third contraction, the test compound was administered to the aorta preparation, which was incubated for 20 minutes.
Comparing angiotensin II contraction curve obtained from the above inhibition test with that of the control, IC50 (concentration being required to inhibit angiotensin II induced contraction by 50%) was determined for each test compound(Table 1).
With `CCCCc1nc(C)c(CC(=O)O)c(=O)n1Cc1ccc(-c2ccccc2-c2nnn[nH]2)cc1` [Compound 19, 2-n-butyl-5-carboxymethyl-6-methyl-3-[[2'-(1H-tetrazol-5-yl)-biphenyl-4-yl]methyl]-pyrimidin-4-(3H)-one], the IC50 stood at 2.63 nM.
`CCCCc1nc(C)c(CC(=O)N2CCC[C@H]2C(N)=O)c(=O)n1Cc1ccc(-c2ccccc2-c2nn[nH]n2)cc1` [Compound 43, 2-n-butyl-5-[(S)-2'-aminocarbonylpyrrolidinocarbonylmethyl]-6-methyl-3-[[2'-(1H-tetrazol-5-yl)biphenyl-4-yl]methyl]-pyrimidin-4-(3H)-one]: the IC50 was found to be 2.08 nM.
Take `CCOC(=O)Cc1c(C)nc(CC)n(Cc2ccc(-c3ccccc3-c3nnn[nH]3)cc2)c1=O` [Compound 1, 2-ethyl-5-ethoxycarbonylmethyl-6-methyl-3-[[2'-(1H-tetrazol-5-yl)biphenyl-4-yl]methyl]-pyrimidin-4-(3H)-one]: the IC50 is 9.05 nM.
Take `CCCCc1nc(C)c(CCC(=O)N2C(C)COCC2C)c(=O)n1Cc1ccc(-c2ccccc2-c2nn[nH]n2)cc1` (stereo not shown) [Compound 79, 2-n-butyl-5-[2'-(3",5"-dimethylmorpholino)carbonylethyl]-6-methyl-3-[[2'-(1H-tetrazol-5-yl)biphenyl-4-yl]methyl]-pyrimidin-4-(3H)-one]: the IC50 turned out to be 13.1 nM.
Turning to `CCCCc1nc(C)c(CCC(=O)N2CCCC(C)(C)C2)c(=O)n1Cc1ccc(-c2ccccc2-c2nn[nH]n2)cc1` [Compound 65, 2-n-butyl-5-[2'-(3",3"-dimethylpiperidino)carbonylethyl]-6-methyl-3-[[2'-(1H-tetrazol-5-yl)biphenyl-4-yl]methyl]-pyrimidin-4-(3H)-one], the IC50 turned out to be 7.6 nM.
Take `CCCCc1nc(C)c(CC(=O)N2CCSCC2)c(=O)n1Cc1ccc(-c2ccccc2-c2nn[nH]n2)cc1` [Compound 75, 2-n-butyl-5-thiomorpholinocarbonylmethyl-6-methyl-3-[[2'-(1H-tetrazol-5-yl)biphenyl-4-yl]methyl]-pyrimidin-4-(3H)-one]: the IC50 amounted to 2.76 nM.
Turning to `CCCCc1nc(CC)c(CCC(=O)O)c(=O)n1Cc1ccc(-c2ccccc2-c2nn[nH]n2)cc1` [Compound 34, 2-n-butyl-5-(2'-carboxyethyl)-6-ethyl-3-[[2'-(1H-tetrazol-5-yl)-biphenyl-4-yl]methyl]-pyrimidin-4-(3H)-one], the IC50 came out at 4.17 nM.
For the compound `CCCCc1nc(C)c(CC(=O)N2CCC(C(=O)OCC)CC2)c(=O)n1Cc1ccc(-c2ccccc2-c2nn[nH]n2)cc1` [Compound 51, 2-n-butyl-5-(4'-ethoxycarbonylpiperidinocarbonylmethyl)-6-methyl-3-[[2'-(1H-tetrazol-5-yl)biphenyl-4-yl]methyl]-pyrimidin-4-(3H)-one], the IC50 stood at 5.99 nM.
With `CCCCc1nc(C)c(CCC(=O)N2CCN(c3ccccn3)CC2)c(=O)n1Cc1ccc(-c2ccccc2-c2nn[nH]n2)cc1` [Compound 82, 2-n-butyl-5-[2'-(4"-(2'"-pyridyl)piperazino)carbonylethyl]-6-methyl-3-[[2'-(1H-tetrazol-5-yl)biphenyl-4-yl]methyl]-pyrimidin-4-(3H)-one], the IC50 came to 53 nM.
Still for that read-out and setting: then `CCCCc1nc(C)c(CCC(=O)N2CCOCC2)c(=O)n1Cc1ccc(-c2ccccc2-c2nn[nH]n2)cc1` [Compound 78, 2-n-butyl-5-(2'-morpholinocarbonylethyl)-6-methyl-3-[[2'-(1H-tetrazol-5-yl)biphenyl-4-yl]methyl]-pyrimidin-4-(3H)-one], with 5.22 nM; and `CCCc1nc(C)c(CC(=O)OCC)c(=O)n1Cc1ccc(-c2ccccc2-c2nnn[nH]2)cc1` [Compound 9, 2-n-propyl-5-ethoxycarbonylmethyl-6-methyl-3-[[2'-(1H-tetrazol-5-yl)biphenyl-4-yl]methyl]-pyrimidin-4-(3H)-one], with 4.35 nM.
For the compound `CCc1nc(C)c(CCC(=O)O)c(=O)n1Cc1ccc(-c2ccccc2-c2nnn[nH]2)cc1` [Compound 6, 2-ethyl-5-(2'-carboxyethyl)-6-methyl-3-[[2'-(1H-tetrazol-5-yl)-biphenyl-4-yl]methyl]-pyrimidin-4-(3H)-one], the IC50 was found to be 22.7 nM.
Same read-out and setting: then `CCCCc1nc(C)c(CC(=O)N(CC)CC)c(=O)n1Cc1ccc(-c2ccccc2-c2nnn[nH]2)cc1` [Compound 21, 2-n-butyl-5-diethylaminocarbonylmethyl-6-methyl-3-[[2'-(1H-tetrazol-5-yl)biphenyl-4-yl]methyl]-pyrimidin-4-(3H)-one], with 2.63 nM; and `CCCc1nc(=O)c(CCC(=O)O)c(C)n1Cc1ccc(-c2ccccc2-c2nn[nH]n2)cc1` [Compound 15, 2-n-propyl-5-(2'-carboxyethyl)-6-methyl-1-[[2'-(1H-tetrazol-5-yl)-biphenyl-4-yl]methyl]-pyrimidin-4-(1H)-one], with 19.4 nM; and `CCCCc1nc(C)c(CCC(=O)N2CCCCC2C(=O)OCC)c(=O)n1Cc1ccc(-c2ccccc2-c2nn[nH]n2)cc1` (stereo not shown) [Compound 67, 2-n-butyl-5-[2'-(2"-ethoxycarbonylpiperidino)carbonylethyl]-6-methyl-3-[[2'-(1H-tetrazol-5-yl)biphenyl-4-yl]methyl]-pyrimidin-4-(3H)-one], with 30.4 nM.
Take `CCCCc1nc(C)c(CCC(=O)N2CCC(Cc3ccccc3)CC2)c(=O)n1Cc1ccc(-c2ccccc2-c2nn[nH]n2)cc1` [Compound 63, 2-n-butyl-5-[2'-(4"-benzylpiperidino)carbonylethyl]-6-methyl-3-[[2'-(1H -tetrazol-5-yl)biphenyl-4-yl]methyl]-pyrimidin-4-(3H)-one]: the IC50 stood at 302 nM.
Take `CCCCc1nc(=O)c(CCC(=O)O)c(CC)n1Cc1ccc(-c2ccccc2-c2nn[nH]n2)cc1` [Compound 35, 2-n-butyl-5-(2'-carboxyethyl)-6-ethyl-1-[[2'-(1H-tetrazol-5-yl)-biphenyl-4-yl]methyl]-pyrimidin-4-(1H)-one]: the IC50 is 62 nM.
Regarding `CCOC(=O)CCc1c(C)nc(CC)n(Cc2ccc(-c3ccccc3-c3nnn[nH]3)cc2)c1=O` [Compound 5, 2-ethyl-5-(2'-ethoxycarbonylethyl)-6-methyl-3-[[2'-(1H-tetrazol-5-yl)biphenyl-4-yl]methyl]-pyrimidin-4-(3H)-one], the IC50 stood at 30.7 nM.
In the case of `CCCCc1nc(C)c(CCC(=O)N2CCN(C(C)=O)CC2)c(=O)n1Cc1ccc(-c2ccccc2-c2nn[nH]n2)cc1` [Compound 81, 2-n-butyl-5-[2'-(4"-acetylpiperazino)carbonylethyl]-6-methyl-3-[[2'-(1H-tetrazol-5-yI)biphenyl-4-yl]methyl]-pyrimidin-4-(3H)-one], the IC50 came out at 9.87 nM.
Take `CCCCc1nc(C)c(CC(=O)N2CCCCCC2)c(=O)n1Cc1ccc(-c2ccccc2-c2nn[nH]n2)cc1` [Compound 56, 2-n-butyl-5-hexamethyleneiminocarbonylmethyl-6-methyl-3-[[2'-(1H-tetrazol-5-yl)biphenyl-4-yl]methyl]-pyrimidin-4-(3H)-one]: the IC50 amounted to 3.33 nM.
On the same count and under the same terms, the same measure for `CCCc1nc(=O)c(CC(=O)O)c(C)n1Cc1ccc(-c2ccccc2-c2nnn[nH]2)cc1` [Compound 11, 2-n-propyl-5-carboxymethyl-6-methyl-1-[[2'-(1H-tetrazol-5-yl)-biphenyl-4-yl]methyl]-pyrimidin-4-(1H)-one]: 7.71 nM.
For the compound `CCCCc1nc(C)c(CCC(=O)N2CCCCC2)c(=O)n1Cc1ccc(-c2ccccc2-c2nn[nH]n2)cc1` [Compound 62, 2-n-butyl-5-[2'-piperidinocarbonylethyl]-6-methyl-3-[[2'-(1H-tetrazol-5-yl)biphenyl-4-yl]methyl]-pyrimidin-4-(3H)-one], the IC50 is 9.62 nM.
On to `CCCCc1nc(C)c(CC(=O)OCC)c(=O)n1Cc1ccc(-c2ccccc2-c2nnn[nH]2)cc1` [Compound 17, 2-n-butyl-5-ethoxycarbonylmethyl-6-methyl-3-[[2'-(1H-tetrazol-5-yl)biphenyl-4-yl]methyl]-pyrimidin-4-(3H)-one], for which the IC50 came to 4.63 nM.
The same measure, in the same setting: the same measure for `CCc1nc(C)c(CC(=O)N(CC)CC)c(=O)n1Cc1ccc(-c2ccccc2-c2nnn[nH]2)cc1` [Compound 4, 2-ethyl-5-diethylaminocarbonylmethyl-6-methyl-3-[[2'-(1H-tetrazol-5-yl)biphenyl-4-yl]methyl]-pyrimidin-4-(3H)-one]: 15.1 nM.

Staying with this assay, now noted: test compound incubated 20 minutes, value given in M, read-out: IC50 (concentration being required to inhibit angiotensin II induced contraction by 50%).
On to `CCCCc1nc(C)c(CCC(=O)N2CCC(C)CC2)c(=O)n1Cc1ccc(-c2ccccc2-c2nn[nH]n2)cc1` [Compound 64, 2-n-butyl-5-[2'-(4"-methylpiperidino)carbonylethyl]-6-methyl-3-[[2'-(1H-tetrazol-5-yl)biphenyl-4-yl]methyl]-pyrimidin-4-(3H)-one], for which the IC50 is more than 10000 nM.
